Laboratory results taken from US20060276527A1, “Combination therapies for the treatment of cancer” (Thresold Pharmaceuticals, Inc., priority 2003, published 2006).
Like-named read-outs stand apart in the source and are kept apart here.

What was measured:
[1] = system: actin, caspase 3, NF-kappabeta, Ikappabetaalpha; conditions: except at 800 microM concentration
Method: Methods: Cells were plated at a density of 5×10^5 cells into a dish, and then maintained in 37° C. incubator (5% CO2) for 2 days. Prior to the assay, cells were rinsed twice with pre-warmed (37° C.) RPMI-1640 Medium (ATCC No. 30-2001; 10 mM HEPES; 1 mM sodium pyruvate; 2 mM L-glutamine; 4500 mg glucose/L; 1500 mg sodium bicarbonate/L). Cells were incubated with 2 mL culture medium in the absence or presence of lonidamine at different concentrations for 4 hours at 37° C. either under normoxia or hypoxia (oxygen level<0.1%). At the end of the incubation, the dish was placed on ice, and the cells were washed rapidly twice with cold PBS buffer (4° C.). For nuclear extracts, cells were lysed with buffer A (10 mM Tris, pH7.5; 1.5 mM MgCl2; 10 mM KCl and protease inhibitors and buffer C (0.5 M NaCl; 20 mM Tris pH7.5; 1.5 mM MgCl2; 20% glycerol and protease inhibitors), sequentially. The protease inhibitors used in the experiments were a cocktail of five protease inhibitors (500 mM AEBSF-HCl, 1 mg/ml Aprotinin, 1 mM E-64, 500 mM EDTA and 1 mM Leupeptin; Calbiochem NO 539131). For whole cell lysate, cells were lysed with 150 mM NaCl; 10 mM Tris ph7.5; 10 mM EDTA; 1% Triton X-100; 0.5% Deoxycholate, and protease inhibitors. The protein concentration was measured using a Bio-Rad protein assay. Equal amounts of protein were loaded on a SDS-PAGE gel. […]

advanced breast cancer = conditions: daily divided oral dose of 600 mg, cited from earlier work
HIF-1alpha [2] = conditions: PC3 cells, normoxic and hypoxic conditions, 4 hours; inhibition dose-dependent
Method: Methods: Cells were plated at a density of 5×10^5 cells into a dish, and then maintained in 37° C. incubator (5% CO2) for 2 days. Prior to the assay, cells were rinsed twice with pre-warmed (37° C.) RPMI-1640 Medium (ATCC No. 30-2001; 10 mM HEPES; 1 mM sodium pyruvate; 2 mM L-glutamine; 4500 mg glucose/L; 1500 mg sodium bicarbonate/L). […] At the end of the incubation, the dish was placed on ice, and the cells were washed rapidly twice with cold PBS buffer (4° C.). For nuclear extracts, cells were lysed with buffer A (10 mM Tris, pH7.5; 1.5 mM MgCl2; 10 mM KCl and protease inhibitors and buffer C (0.5 M NaCl; 20 mM Tris pH7.5; 1.5 mM MgCl2; 20% glycerol and protease inhibitors), sequentially. The protease inhibitors used in the experiments were a cocktail of five protease inhibitors (500 mM AEBSF-HCl, 1 mg/ml Aprotinin, 1 mM E-64, 500 mM EDTA and 1 mM Leupeptin; Calbiochem NO 539131). For whole cell lysate, cells were lysed with 150 mM NaCl; 10 mM Tris ph7.5; 10 mM EDTA; 1% Triton X-100; 0.5% Deoxycholate, and protease inhibitors. The protein concentration was measured using a Bio-Rad protein assay. Equal amounts of protein were loaded on a SDS-PAGE gel. […] The specific protein was detected using a colorimetric substrate, and the intensity of each protein was quantified using an NIH image system.

HIF-1alpha [3] = system: HIF-1alpha
Method: LNCaP is a citrate-producing cell (ATTC No. CRL-1740) while PC3 is citrate oxidizing cell (ATTC No. CRL-1435).
Methods: Cells were plated at a density of 5×10^5 cells into a dish, and then maintained in 37° C. incubator (5% CO2) for 2 days. Prior to the assay, cells were rinsed twice with pre-warmed (37° C.) RPMI-1640 Medium (ATCC No. 30-2001; 10 mM HEPES; 1 mM sodium pyruvate; 2 mM L-glutamine; 4500 mg glucose/L; 1500 mg sodium bicarbonate/L). Cells were incubated with 2 mL culture medium in the absence or presence of lonidamine at different concentrations for 4 hours at 37° C. either under normoxia or hypoxia (oxygen level<0.1%). […] For nuclear extracts, cells were lysed with buffer A (10 mM Tris, pH7.5; 1.5 mM MgCl2; 10 mM KCl and protease inhibitors and buffer C (0.5 M NaCl; 20 mM Tris pH7.5; 1.5 mM MgCl2; 20% glycerol and protease inhibitors), sequentially. The protease inhibitors used in the experiments were a cocktail of five protease inhibitors (500 mM AEBSF-HCl, 1 mg/ml Aprotinin, 1 mM E-64, 500 mM EDTA and 1 mM Leupeptin; Calbiochem NO 539131). For whole cell lysate, cells were lysed with 150 mM NaCl; 10 mM Tris ph7.5; 10 mM EDTA; 1% Triton X-100; 0.5% Deoxycholate, and protease inhibitors. The protein concentration was measured using a Bio-Rad protein assay. […]

metastatic breast cancer = conditions: addition of LND to epirubicin, factorial design; cited from earlier work

O=C(O)c1nn(Cc2ccc(Cl)cc2Cl)c2ccccc12 [lonidamine, 1-(2,4-dichlorobenzyl)-1H-indazole-3-carboxylic acid]
inhibition of protein levels of actin, caspase 3, NF-kappabeta, or Ikappabetaalpha [1]: no detectable inhibition | minor response (advanced breast cancer; 28 patients evaluable): 11% | partial response (4-24+ months) (advanced breast cancer; 28 patients evaluable): 11% | progressed (advanced breast cancer; of 28 patients evaluable): 20 patients | stable disease (greater than 3 months) (advanced breast cancer; of 28 patients evaluable): two | level of HIF-1alpha protein detected in nuclear (NE) and whole-cell extract (WCE) preparations (HIF-1alpha [2]): reduced the level of HIF-1alpha protein | sensitivity of citrate-producing cells (LNCaP) to lonidamine treatment compared to citrate-oxidizing cells (PC3) (HIF-1alpha [3]; HIF-1alpha accumulation, LNCaP versus PC3): greater sensitivity | level of HIF-1alpha protein detected in nuclear (NE) and whole-cell extract (WCE) preparations (HIF-1alpha [3]; LNCaP cells, hypoxic conditions (oxygen <0.1%), 4 hours, inhibition dose-dependent): reduced the level of HIF-1alpha protein | time to progression in metastatic breast cancer patients treated with epirubicin (metastatic breast cancer): not improved
